# Results published in US9023370B2, “Conjugates comprising nanoparticles coated with platinum containing compounds” (priority 2008, dated 2015).
# Columns and labels:
# A549 tumor cells = experiment: MTT assay of the conjugates in tumoral cells; type: cell-based, human; conditions: 48 h
# Protocol: Cells were plated in a multiwell-96 plate (Iwaki) at 4×10^3 cells/well and 24 hours later the medium was changed for treatments. Tetrazolium salt 3-(4,5-dimethylthiazol-2-yl)-2,5-diphenyltetrazoliumbromide (MTT, Acros Organics) was used for mitochondrial activity evaluation in cell viability studies 24 and 48 hours post-treatments. Plates were measured in MicroPlate Reader Model 550 (BIO-RAD) and data were processed with Excel and SPSS software. Using absorbance measurements [time zero, (Az), control growth, (C), and test growth in the presence of drug at the various concentration levels (Ai)], the percentage growth was calculated at each of the drug concentration levels. The assays were done with three cellular cancer lines: HeLa, A549 and HEK.
# A and G represent the control values at 0 and 48 h respectively.
# [1] = parameters: species or system SCID mice; conditions: mouse, in vivo
# Protocol: (§1) Fifteen SCID mice were choosen for the in vivo experiment. Mouse were injected 20 106 A549 lung tumoral cells in their flanks. Three random groups of five mice each were prepared. Then we waited until the tumour grew to an easily measurable size. The first group (A) was given no treatment. The second group (B) was given mild doses of commercial cisplatin (30 mg per Kg animal weight). The third group (C) was treated with the conjugates of example 4.1 with […] of 1.9 mg of platinum drug per litre in one intra-peritoneal dose. Tumour size (as a sign of therapeutical success) and animal weight (as a sign of secondary effects) were measured every three days. After fifteen days the experiments were stopped.
# A549 lung tumoral cells = experiment: Animal assay: tumour size; type: in vivo; conditions: SCID mice, A549 flank tumours, fifteen days; cisplatin 30 mg per Kg; example 4.1 100 ml of 1.9 mg platinum drug per litre, one intra-peritoneal dose
# Protocol: as §1
# [2] = Stability: platinum drug release after incubation, quantified by ICP-MS; type: physicochemical; conditions: 48 h incubation with cellular medium at 37° C.
# Protocol: The stability of these conjugates was compared with the stability of the conjugates of the invention. […] The stability tests were based on inductively coupled plasma mass spectroscopy ICP-MS quantifications of platinum drug release after incubation of both systems.
# [3] = Zeta potential of nanoparticles and conjugates; type: physicochemical; conditions: pH 7.0
# Protocol: The zeta potential of nanoparticles and conjugates was determined using a Malvern ZetaSizer Analyzer (Malvern Instruments, UK). These measurements were performed with control of the pH (7.0).
molecule,measurement,setting,value
"N.N.O.O.O=[N+]([O-])[O-].O=[N+]([O-])[O-].[Pt+2] [example 3, cis-[Pt(NH3)2(H2O)2](NO3)2]",effect on A549 lung tumoral cells viability (MTT),A549 tumor cells,did not elicit any response
"N.N.[Cl][Pt][Cl] [commercial cisplatin, cisplatin, reference compound]",animal weight (sign of secondary effects),[1],loose of body weight
same,kidney and hepatic dysfunction (preliminary biochemical measurements),[1],did not indicate any kidney and hepatic significant dysfunction
same,tumour size,A549 lung tumoral cells,reduction of tumour size
"AuNP(NP:4 nm)-MUA-cisplatin [example 5, reference compound]",release of platinum drug from the nanoparticle,[2],release of platinum drug from the nanoparticle was only observed
AuNP(NP:13 nm)-MUA [example 2.1],ζ-potential,[3],−65.8 mV
same,effect on A549 lung tumoral cells viability (MTT),A549 tumor cells,did not elicit any response
